Assay results reported in patent US12404262B2 (priority 2021, dated 2025).
Converted amounts (≈) assume the structure as drawn. Read-outs that look alike come from different tables or passages of the source.

Columns and labels:
physchem = details: 25 °C, thermodynamic from solid
[1] = Solubility in simulated intestinal fluids (FaSSIF/FeSSIF); details: 25 °C, thermodynamic from solid
[2] = 0.1N HCl, 1.0% DMSO, 24-hour incubation at ambient temperature, maximum theoretical 100 μM, first value of the cell
[3] = 1×PBS buffer (pH 7.4), 1.0% DMSO, 24-hour incubation at ambient temperature, maximum theoretical 100 μM, second value of the cell
[4] = fasted state simulated intestinal fluid (FaSSIF), fassif
[5] = fed state simulated intestinal fluid (FeSSIF), fessif

| Structure (SMILES) | pH 2 solubility [2] | pH 7 solubility [3] | solubility (physchem; fassif) | pH 2 solubility (pH 2) | pH 7 solubility (pH 7.4) | solubility (physchem; fessif) | solubility [1, 4] | solubility [1, 5] |
| --- | --- | --- | --- | --- | --- | --- | --- | --- |
| CC(C)(C#Cc1ccc(-c2ccc(Cl)c3c(N(C(=O)NCCP(=O)(O)O)S(C)(=O)=O)nn(CC(F)(F)F)c23)c([C@H](Cc2cc(F)cc(F)c2)NC(=O)Cn2nc(C(F)(F)F)c3c2C(F)(F)[C@@H]2C[C@H]32)n1)S(C)(=O)=O [Compound 54, (2-(3-(4-chloro-7-(2-((S)-1-(2-((3bS,4aR)-5,5-difluoro-3-(trifluoromethyl)-3b,4,4a,5-tetrahydro-1H-cyclopropa[3,4]cyclopenta[1,2-c]pyrazol-1-yl)acetamido)-2-(3,5-difluorophenyl)ethyl)-6-(3-methyl-3-(methylsulfonyl)but-1-yn-1-yl)pyridin-3-yl)-1-(2,2,2-trifluoroethyl)-1H-indazol-3-yl)-3-(methylsulfonyl)ureido)ethyl)phosphonic acid] | 1 μM | 41 μM | 0.416 mg/mL (≈ 372 µM) | – | – | – | – | – |
| CN(Cc1ccccc1OP(=O)(O)O)C(=O)N(c1nn(CC(F)(F)F)c2c(-c3ccc(C#CC(C)(C)S(C)(=O)=O)nc3[C@H](Cc3cc(F)cc(F)c3)NC(=O)Cn3nc(C(F)(F)F)c4c3C(F)(F)[C@@H]3C[C@H]43)ccc(Cl)c12)S(C)(=O)=O [Compound 67, 2-((3-(4-chloro-7-(2-((S)-1-(2-((3bS,4aR)-5,5-difluoro-3-(trifluoromethyl)-3b,4,4a,5-tetrahydro-1H-cyclopropa[3,4]cyclopenta[1,2-c]pyrazol-1-yl)acetamido)-2-(3,5-difluorophenyl)ethyl)-6-(3-methyl-3-(methylsulfonyl)but-1-yn-1-yl)pyridin-3-yl)-1-(2,2,2-trifluoroethyl)-1H-indazol-3-yl)-1-methyl-3-(methylsulfonyl)ureido)methyl)phenyl dihydrogen phosphate] | – | – | 0.536 mg/mL | 2/79 μM | 2/79 μM | 0.707 mg/mL | – | – |
| CN(CCN(C)C(=O)N(c1nn(CC(F)(F)F)c2c(-c3ccc(C#CC(C)(C)S(C)(=O)=O)nc3[C@H](Cc3cc(F)cc(F)c3)NC(=O)Cn3nc(C(F)(F)F)c4c3C(F)(F)[C@@H]3C[C@H]43)ccc(Cl)c12)S(C)(=O)=O)C(=O)OCOP(=O)(O)O [Compound 83, (phosphonooxy)methyl (2-(3-(4-chloro-7-(2-((S)-1-(2-((3bS,4aR)-5,5-difluoro-3-(trifluoromethyl)-3b,4,4a,5-tetrahydro-1H-cyclopropa[3,4]cyclopenta[1,2-c]pyrazol-1-yl)acetamido)-2-(3,5-difluorophenyl)ethyl)-6-(3-methyl-3-(methylsulfonyl)but-1-yn-1-yl)pyridin-3-yl)-1-(2,2,2-trifluoroethyl)-1H-indazol-3-yl)-1-methyl-3-(methylsulfonyl)ureido)ethyl)(methyl)carbamate] | – | – | 1.95 mg/mL (≈ 1580 µM) | 1/61 μM | 1/61 μM | 0.5 mg/mL (≈ 404 µM) | – | – |
| CN(CC(=O)OCOP(=O)(O)O)C(=O)N(c1nn(CC(F)(F)F)c2c(-c3ccc(C#CC(C)(C)S(C)(=O)=O)nc3[C@H](Cc3cc(F)cc(F)c3)NC(=O)Cn3nc(C(F)(F)F)c4c3C(F)(F)[C@@H]3C[C@H]43)ccc(Cl)c12)S(C)(=O)=O [Compound 84, (phosphonooxy)methyl N-((4-chloro-7-(2-((S)-1-(2-((3bS,4aR)-5,5-difluoro-3-(trifluoromethyl)-3b,4,4a,5-tetrahydro-1H-cyclopropa[3,4]cyclopenta[1,2-c]pyrazol-1-yl)acetamido)-2-(3,5-difluorophenyl)ethyl)-6-(3-methyl-3-(methylsulfonyl)but-1-yn-1-yl)pyridin-3-yl)-1-(2,2,2-trifluoroethyl)-1H-indazol-3-yl)(methylsulfonyl)carbamoyl)-N-methylglycinate] | 5 μM | 16 μM | 0.154 mg/mL (≈ 129 µM) | – | – | – | – | – |
| CC(C)(C#Cc1ccc(-c2ccc(Cl)c3c(N(C(=O)OCC(=O)OCOP(=O)(O)O)S(C)(=O)=O)nn(CC(F)(F)F)c23)c([C@H](Cc2cc(F)cc(F)c2)NC(=O)Cn2nc(C(F)(F)F)c3c2C(F)(F)[C@@H]2C[C@H]32)n1)S(C)(=O)=O [Compound 94, (phosphonooxy)methyl 2-(((4-chloro-7-(2-((S)-1-(2-((3bS,4aR)-5,5-difluoro-3-(trifluoromethyl)-3b,4,4a,5-tetrahydro-1H-cyclopropa[3,4]cyclopenta[1,2-c]pyrazol-1-yl)acetamido)-2-(3,5-difluorophenyl)ethyl)-6-(3-methyl-3-(methylsulfonyl)but-1-yn-1-yl)pyridin-3-yl)-1-(2,2,2-trifluoroethyl)-1H-indazol-3-yl)(methylsulfonyl)carbamoyl)oxy)acetate] | <1/1 μM | <1/1 μM | – | – | – | – | 0.481 mg/mL (≈ 408 µM) | 0.189 mg/mL (≈ 160 µM) |
| CC(C)(C#Cc1ccc(-c2ccc(Cl)c3c(N(C(=O)OCCCP(=O)(O)O)S(C)(=O)=O)nn(CC(F)(F)F)c23)c([C@H](Cc2cc(F)cc(F)c2)NC(=O)Cn2nc(C(F)(F)F)c3c2C(F)(F)[C@@H]2C[C@H]32)n1)S(C)(=O)=O [Compound 112, (3-(((4-chloro-7-(2-((S)-1-(2-((3bS,4aR)-5,5-difluoro-3-(trifluoromethyl)-3b,4,4a,5-tetrahydro-1H-cyclopropa[3,4]cyclopenta[1,2-c]pyrazol-1-yl)acetamido)-2-(3,5-difluorophenyl)ethyl)-6-(3-methyl-3-(methylsulfonyl)but-1-yn-1-yl)pyridin-3-yl)-1-(2,2,2-trifluoroethyl)-1H-indazol-3-yl)(methylsulfonyl)carbamoyl)oxy)propyl)phosphonic acid] | 1 μM | 77 μM | – | – | – | – | 0.778 mg/mL (≈ 686 µM) | 1.25 mg/mL (≈ 1100 µM) |
| CC(C)(C#Cc1ccc(-c2ccc(Cl)c3c(N(C(=O)OCCCC(=O)O)S(C)(=O)=O)nn(CC(F)(F)F)c23)c([C@H](Cc2cc(F)cc(F)c2)NC(=O)Cn2nc(C(F)(F)F)c3c2C(F)(F)[C@@H]2C[C@H]32)n1)S(C)(=O)=O [Compound 113] | 1 μM | 5 μM | – | – | – | – | 0.005 mg/mL (≈ 4.55 µM) | 0.008 mg/mL (≈ 7.28 µM) |
| CC(C)(C#Cc1ccc(-c2ccc(Cl)c3c(N(C(=O)OCCNC(=O)C(=O)O)S(C)(=O)=O)nn(CC(F)(F)F)c23)c([C@H](Cc2cc(F)cc(F)c2)NC(=O)Cn2nc(C(F)(F)F)c3c2C(F)(F)[C@@H]2C[C@H]32)n1)S(C)(=O)=O [Compound 122, 2-((2-(((4-chloro-7-(2-((S)-1-(2-((3bS,4aR)-5,5-difluoro-3-(trifluoromethyl)-3b,4,4a,5-tetrahydro-1H-cyclopropa[3,4]cyclopenta[1,2-c]pyrazol-1-yl)acetamido)-2-(3,5-difluorophenyl)ethyl)-6-(3-methyl-3-(methylsulfonyl)but-1-yn-1-yl)pyridin-3-yl)-1-(2,2,2-trifluoroethyl)-1H-indazol-3-yl)(methylsulfonyl)carbamoyl)oxy)ethyl)amino)-2-oxoacetic acid] | 1 μM | 16 μM | – | – | – | – | 0.007 mg/mL (≈ 6.21 µM) | 0.162 mg/mL (≈ 144 µM) |
| CC(C)(C#Cc1ccc(-c2ccc(Cl)c3c(N(C(=O)OCCNC(=N)N)S(C)(=O)=O)nn(CC(F)(F)F)c23)c([C@H](Cc2cc(F)cc(F)c2)NC(=O)Cn2nc(C(F)(F)F)c3c2C(F)(F)[C@@H]2C[C@H]32)n1)S(C)(=O)=O [Compound 123, 2-guanidinoethyl (4-chloro-7-(2-((S)-1-(2-((3bS,4aR)-5,5-difluoro-3-(trifluoromethyl)-3b,4,4a,5-tetrahydro-1H-cyclopropa[3,4]cyclopenta[1,2-c]pyrazol-1-yl)acetamido)-2-(3,5-difluorophenyl)ethyl)-6-(3-methyl-3-(methylsulfonyl)but-1-yn-1-yl)pyridin-3-yl)-1-(2,2,2-trifluoroethyl)-1H-indazol-3-yl)(methylsulfonyl)carbamate] | 78 μM | 71 μM | – | – | – | – | 0.12 mg/mL (≈ 109 µM) | 0.153 mg/mL (≈ 139 µM) |
| CC(C)(C#Cc1ccc(-c2ccc(Cl)c3c(N(C(=O)OC(CC(=O)O)CC(=O)O)S(C)(=O)=O)nn(CC(F)(F)F)c23)c([C@H](Cc2cc(F)cc(F)c2)NC(=O)Cn2nc(C(F)(F)F)c3c2C(F)(F)[C@@H]2C[C@H]32)n1)S(C)(=O)=O [Compound 125, 3-(((4-chloro-7-(2-((S)-1-(2-((3bS,4aR)-5,5-difluoro-3-(trifluoromethyl)-3b,4,4a,5-tetrahydro-1H-cyclopropa[3,4]cyclopenta[1,2-c]pyrazol-1-yl)acetamido)-2-(3,5-difluorophenyl)ethyl)-6-(3-methyl-3-(methylsulfonyl)but-1-yn-1-yl)pyridin-3-yl)-1-(2,2,2-trifluoroethyl)-1H-indazol-3-yl)(methylsulfonyl)carbamoyl)oxy)pentanedioic acid] | 14 μM | 68 μM | – | – | – | – | 0.617 mg/mL (≈ 540 µM) | 0.042 mg/mL (≈ 36.8 µM) |
| CC(C)(C#Cc1ccc(-c2ccc(Cl)c3c(N(C(=O)OCCC(C(=O)O)C(=O)O)S(C)(=O)=O)nn(CC(F)(F)F)c23)c([C@H](Cc2cc(F)cc(F)c2)NC(=O)Cn2nc(C(F)(F)F)c3c2C(F)(F)[C@@H]2C[C@H]32)n1)S(C)(=O)=O [Compound 126, 2-(2-(((4-chloro-7-(2-((S)-1-(2-((3bS,4aR)-5,5-difluoro-3-(trifluoromethyl)-3b,4,4a,5-tetrahydro-1H-cyclopropa[3,4]cyclopenta[1,2-c]pyrazol-1-yl)acetamido)-2-(3,5-difluorophenyl)ethyl)-6-(3-methyl-3-(methylsulfonyl)but-1-yn-1-yl)pyridin-3-yl)-1-(2,2,2-trifluoroethyl)-1H-indazol-3-yl)(methylsulfonyl)carbamoyl)oxy)ethyl)malonic acid] | 1 μM | 5 μM | – | – | – | – | 0.021 mg/mL (≈ 18.4 µM) | 0.218 mg/mL (≈ 191 µM) |
| CC(C)(C#Cc1ccc(-c2ccc(Cl)c3c(N(C(=O)OC[C@H](CC(=O)O)NC(=O)C(=O)O)S(C)(=O)=O)nn(CC(F)(F)F)c23)c([C@H](Cc2cc(F)cc(F)c2)NC(=O)Cn2nc(C(F)(F)F)c3c2C(F)(F)[C@@H]2C[C@H]32)n1)S(C)(=O)=O [Compound 131] | 1 μM | 73 μM | – | – | – | – | 0.816 mg/mL (≈ 688 µM) | 0.427 mg/mL (≈ 360 µM) |
